The results in this text go back to patent US20040014047A1, “Antisense modulation of LIM domain kinase 1 expression” (Isis Pharmaceuticals Inc., priority 2002, published 2004).

Strand notation (5' to 3'): a small letter for the sugar, then the base; units joined by * are phosphorothioate-linked, units joined directly phosphodiester-linked; [ ] holds rarer units or linkages, { } end groups; capitals alone tell only the bases. e = 2'-O-(2-methoxyethyl) (MOE); [5mC] = 5-methylcytosine; d = 2'-deoxy (DNA)

This data set has as its system human LIM domain kinase 1 mRNA. Briefly: Antisense inhibition of human LIM domain kinase 1 mRNA levels, quantitative real-time PCR, A549 cells (screen). The class given is cell-based. As to conditions: quantitative real-time PCR, averages from two experiments, screening concentration not given (50 nM to 300 nM used herein). On the procedure: When cells reached 70% confluency, they were treated with oligonucleotide. […] Cells were harvested 16-24 hours after oligonucleotide treatment.
Vacuum was applied for 1 minute.
PCR reagents were obtained from Invitrogen Corporation, (Carlsbad, Calif.).
Total RNA is quantified using RiboGreenTM RNA quantification reagent from Molecular Probes.
Probes and primers to human LIM domain kinase 1 were designed to hybridize to a human LIM domain kinase 1 sequence, using published sequence information (GenBank accession number D26309.1, incorporated herein as SEQ ID NO:4). For human LIM domain kinase 1 the PCR primers were: forward primer: […] (SEQ ID NO: 5) reverse primer: […] (SEQ ID NO: 6) and the PCR probe was: FAM-[…]-TAMRA (SEQ ID NO: 7) where FAM is the fluorescent dye and TAMRA is the quencher dye.
All cytidine residues are 5-methylcytidines. […] Data are averages from two experiments in which A549 cells were treated with the oligonucleotides of the present invention. […] If present, “N.D.” indicates “no data”.
In general terms: Real-time PCR tracks product formation cycle by cycle.
For “206161 (eA*eA*e[5mC]*e[5mC]*eT*d[5mC]*dA*dT*dG*d[5mC]*dA*d[5mC]*dT*d[5mC]*dG*eA*e[5mC]*eG*eG*eG; antisense) [compound 206161]”, the “% INHIB (inhibition of human LIM domain kinase 1 mRNA levels)” value (“% INHIB” below) was 82%.
The value for “206162 (e[5mC]*eT*eG*e[5mC]*eT*dG*d[5mC]*dA*dG*d[5mC]*d[5mC]*dG*dT*dA*dT*eG*eA*eA*eA*eA; antisense) [compound 206162]” was 74%; that for “206163 (eG*eT*e[5mC]*eA*eA*d[5mC]*d[5mC]*dT*d[5mC]*dA*dT*dG*d[5mC]*dA*d[5mC]*eT*e[5mC]*eG*eA*e[5mC]; antisense) [compound 206163]” was 79%; that for “206164 (e[5mC]*eA*eG*eG*eT*dG*d[5mC]*dA*dA*d[5mC]*dA*dA*dA*dG*dT*eA*eG*e[5mC]*eG*eT; antisense) [compound 206164]” was 75%.
As for “206165 (e[5mC]*e[5mC]*e[5mC]*eT*e[5mC]*d[5mC]*dA*dG*dG*dT*dG*d[5mC]*dA*dA*d[5mC]*eA*eA*eA*eG*eT) [compound 206165]”, the “% INHIB” value was 22%.
With “206166 (eT*eT*e[5mC]*eT*eT*d[5mC]*d[5mC]*d[5mC]*dT*d[5mC]*d[5mC]*dA*dG*dG*dT*eG*e[5mC]*eA*eA*e[5mC]; antisense) [compound 206166]” the figure was 70%; with “206167 (eA*eT*eA*e[5mC]*eG*dT*dT*d[5mC]*dT*dT*d[5mC]*d[5mC]*d[5mC]*dT*d[5mC]*e[5mC]*eA*eG*eG*eT; antisense) [compound 206167]”, 85%; with “206168 (eT*e[5mC]*eT*e[5mC]*e[5mC]*d[5mC]*dA*dT*dA*d[5mC]*dG*dT*dT*d[5mC]*dT*eT*e[5mC]*e[5mC]*e[5mC]*eT; antisense) [compound 206168]”, 36%.
The value for “206169 (e[5mC]*eT*eT*e[5mC]*e[5mC]*dT*d[5mC]*dT*d[5mC]*d[5mC]*d[5mC]*dA*dT*dA*d[5mC]*eG*eT*eT*e[5mC]*eT; antisense) [compound 206169]” was 67%.
With “206170 (eG*e[5mC]*eA*eA*e[5mC]*dT*d[5mC]*dG*d[5mC]*dT*dT*d[5mC]*d[5mC]*dT*dT*e[5mC]*e[5mC]*eT*e[5mC]*eT; antisense) [compound 206170]”, the “% INHIB” value is given as 43%.
On to “206171 (eA*eG*eG*eG*e[5mC]*d[5mC]*dT*dG*dG*dA*dG*dG*dT*dA*d[5mC]*eT*eG*eG*e[5mC]*e[5mC]; antisense) [compound 206171]”, for which the “% INHIB” value stood at 83%.
Take “206172 (eT*e[5mC]*e[5mC]*eT*eT*d[5mC]*dT*dT*dG*d[5mC]*dA*dG*dA*dA*dG*eA*eG*e[5mC]*eT*eG; antisense) [compound 206172]”: the “% INHIB” value was 76%.
For “206173 (eA*eG*eT*eA*eG*dT*d[5mC]*d[5mC]*dT*dT*d[5mC]*dT*dT*dG*d[5mC]*eA*eG*eA*eA*eG; antisense) [compound 206173]”, the “% INHIB” value was found to be 71%.
With “206174 (antisense eG*eG*e[5mC]*e[5mC]*e[5mC]*dA*dG*dT*dA*dG*dT*d[5mC]*d[5mC]*dT*dT*e[5mC]*eT*eT*eG*e[5mC]) [compound 206174]”, the “% INHIB” value amounted to 87%.
The value for “206175 (antisense eT*eA*eG*e[5mC]*eG*dG*dG*d[5mC]*d[5mC]*d[5mC]*dA*dG*dT*dA*dG*eT*e[5mC]*e[5mC]*eT*eT) [compound 206175]” was 83%.
With “206176 (antisense e[5mC]*eG*e[5mC]*e[5mC]*eA*dT*dA*dG*d[5mC]*dG*dG*dG*d[5mC]*d[5mC]*d[5mC]*eA*eG*eT*eA*eG) [compound 206176]” the figure was 87%.
